Measurements as given in patent US4322346A, “5H-2,3-Benzodiazepine derivatives” (priority 1978, dated 1982).
Entries after “also recorded” stand apart in the source; their conditions may differ.

Key:
Assay type in all cases: in vivo
mice [1] = test: Narcosis potentiating activity on mice (sodium hexobarbital narcosis); details: for Narcosis potentiating activity on mice, Relative activity: relative to Grandaxin (1.0)
Description: When studying the narcosis potentiating effect, the benzodiazepine compounds were administered to mice in oral dosages of 12.5, 25, 50 or 100 mg/kg, and 30 minutes later 50 mg/kg of sodium hexobarbital were injected intravenously into the animals. The percentage prolongation of the narcosis period, compared to the value observed in the control group treated with sodium hexobarbital alone, was calculated. In these tests Grandaxin was applied again as reference substance.

mice [2] = test: General behaviour of mice; details: 100 mg/kg i.p. and, resp., 200 mg/kg p.o., SMA = spontaneous motor activity
Description: These compounds decrease the spontaneous motor activity and potentiate the effect of narcotics.
(§1) The tests were performed on mice. In the examination of the general behaviour the animals were treated intraperitoneally with 100 mg/kg or orally with 200 mg/kg of the compound in question. The fighting behaviour test was performed according to the method of Tedeschi et al. (J. Pharm. Exp. Ther. 25, 28 /1959/). The observations concerning the general behaviour of the animals and the ED50 values obtained in the fighting behaviour test are summarized in Table 1. In these tests 1-(3,4-dimethoxyphenyl)-4-methyl-5-ethyl-7,8-dimethoxy-5H-2,3-benzodiazepine (Grandaxin) was applied as reference substance.

mice [3] = test: Fighting behaviour test on mice (method of Tedeschi et al.); details: for ED50: Mus musculus, po, mice; for "Fighting behaviour" test on mice, relative activity: relative to Grandaxin (1.0), from ED50 p.o.
Description: as §1

[4] = Mus musculus, po, 50 mg/kg p.o., 30 minutes before 50 mg/kg sodium hexobarbital i.v., prolongation vs control, read-out: Narcosis potentiating activity on mice, Increase, %
[5] = Mus musculus, po, 100 mg/kg p.o., 30 minutes before 50 mg/kg sodium hexobarbital i.v., prolongation vs control, read-out: Narcosis potentiating activity on mice, Increase, %
[6] = Mus musculus, po, 25 mg/kg p.o., 30 minutes before 50 mg/kg sodium hexobarbital i.v., prolongation vs control, read-out: Narcosis potentiating activity on mice, Increase, %

Compound | Narcosis potentiating activity on mice, Relative activity (mice [1]; 50 mg/kg p.o.) | Narcosis potentiating activity on mice, Relative activity (mice [1]; 100 mg/kg p.o.) | change in vivo at 50 mg/kg (mice [1]; [4]) | change in vivo at 100 mg/kg (mice [1]; [5]) | General behaviour (mice [2]) | ED50 (mice [3]) | "Fighting behaviour" test on mice, relative activity (mice [3]) | Narcosis potentiating activity on mice, Relative activity (mice [1]; 25 mg/kg p.o.) | change in vivo at 25 mg/kg (mice [1]; [6]) | Narcosis potentiating activity on mice, Relative activity (mice [1]; 12.5 mg/kg p.o.) | change in vivo at 12.5 mg/kg (mice [1]; Mus musculus, po, 12.5 mg/kg p.o., 30 minutes before 50 mg/kg sodium hexobarbital i.v., prolongation vs control, read-out: Narcosis potentiating activity on mice, Increase, %)
COc1cc2c(cc1OC)C(c1cccc(F)c1)=NN=C(C)C2 [Example 41, 1-(3-Fluorphenyl)-4-methyl-7,8-dimethoxy-5H-2,3-benzodiazepine] | 1.80 | 1.60 | 205% | 383% | Decrease of SMA | 37 mg/kg | 1.7 | – | – | – | –
CCC1C(C)=NN=C(c2ccc(OC)c(OC)c2)c2cc(OC)c(OC(C)C)cc21 (centres unmarked) [Example 33, 1-(3,4-dimethoxyphenyl)-4-methyl-5-ethyl-7-isopropoxy-8-methoxy-5H-2,3-benzodiazepine] | 3.90 | – | 445% | – | – | – | – | 3.01 | 244% | – | –
CCC1C(C)=NN=C(c2ccccc2)c2cc(OC)c(OC)cc21 (centres unmarked) [Example 22, 1-phenyl-4-methyl-5-ethyl-7,8-dimethoxy-5H-2,3-benzodiazepine] | 3.20 | – | 364% | – | Decrease of SMA; also recorded: catalepsy | 35 mg/kg | 1.8 | 2.23 | 181% | – | –
CCC1C(C)=NN=C(c2ccc(O)c(OC)c2)c2cc(OC)c(OC)cc21 (centres unmarked) [Example 24, 1-(3-methoxy-4-hydroxyphenyl)-4-methyl-5-ethyl-7,8-dimethoxy-5H-2,3-benzodiazepine] | 1.16 | – | 132% | – | – | – | – | – | – | – | –
CCC1C(C)=NN=C(c2ccccc2Cl)c2cc(OC)c(OC)cc21 (centres unmarked) [Example 18, 1-(2-chlorophenyl)-4-methyl-5-ethyl-7,8-dimethoxy-5H-2,3-benzodiazepine] | 13.33 | – | – | – | Strong decrease of SMA | 40 mg/kg | 1.6 | 4.65 | 377% | 9.41 | 160%
CCC1C(C)=NN=C(c2ccccc2C)c2cc(OC)c(OC)cc21 (centres unmarked) [Example 7, 1-(2-tolyl)-4-methyl-5-ethyl-7,8-dimethoxy-5H-2,3-benzodiazepine] | – | – | – | – | – | – | – | 3.71 | 301% | – | –
COc1cc2c(cc1OC)C(c1ccccc1OC)=NN=C(C)C2 [Example 43, 1-(2-Methoxyphenyl)-4-methyl-7,8-dimethoxy-5H-2,3-benzodiazepine] | – | – | – | – | Decrease of SMA | 36 mg/kg | 1.8 | 2.89 | 234% | – | –
COc1cc2c(cc1OC)C(C)C(C)=NN=C2c1cccc(Cl)c1 (centres unmarked) [Example 40, 1-(3-Chlorophenyl)-4,5-dimethyl-7,8-dimethoxy-5H-2,3-benzodiazepine] | 0.79 | 0.91 | 90% | 218% | Decrease of SMA | 50 mg/kg | 1.3 | – | – | – | –
CCC1=NN=C(c2ccc(OC)c(OC)c2)c2cc(OC)c(OC)cc2C1CC (centres unmarked) [Example 11, 1-(3,4-dimethoxyphenyl)-4,5-diethyl-7,8-dimethoxy-5H-2,3-benzodiazepine] | 1.43 | – | 163% | – | – | – | – | 1.65 | 134% | – | –
CCOc1cc2c(cc1OC)C(c1ccc(OC)c(OC)c1)=NN=C(C)C2CC (centres unmarked) [Example 36, 1-(3,4-dimethoxyphenyl)-4-methyl-5-ethyl-7-ethoxy-8-methoxy-5H-2,3-benzodiazepine] | 2.44 | – | 278% | – | – | – | – | 1.62 | 132% | – | –
